Reference: ChEMBL document CHEMBL1201862, “PubChem BioAssay data set” (2004)
Activity calls are given as the source filed them. Rule as the data show it: actives have a measured IC50 and inactives only a lower limit.

Target: Envelope glycoprotein gp160 (Human immunodeficiency virus 1, UniProt Q6QLK5)
Assay: cell-free HIV fusion peptide-binding blockers – biochemical, uHTS, fluorescence dequenching, […] (AID 1986)

Envelope glycoprotein gp160, sequence (Q6QLK5 whole entry, the tested form may be a part): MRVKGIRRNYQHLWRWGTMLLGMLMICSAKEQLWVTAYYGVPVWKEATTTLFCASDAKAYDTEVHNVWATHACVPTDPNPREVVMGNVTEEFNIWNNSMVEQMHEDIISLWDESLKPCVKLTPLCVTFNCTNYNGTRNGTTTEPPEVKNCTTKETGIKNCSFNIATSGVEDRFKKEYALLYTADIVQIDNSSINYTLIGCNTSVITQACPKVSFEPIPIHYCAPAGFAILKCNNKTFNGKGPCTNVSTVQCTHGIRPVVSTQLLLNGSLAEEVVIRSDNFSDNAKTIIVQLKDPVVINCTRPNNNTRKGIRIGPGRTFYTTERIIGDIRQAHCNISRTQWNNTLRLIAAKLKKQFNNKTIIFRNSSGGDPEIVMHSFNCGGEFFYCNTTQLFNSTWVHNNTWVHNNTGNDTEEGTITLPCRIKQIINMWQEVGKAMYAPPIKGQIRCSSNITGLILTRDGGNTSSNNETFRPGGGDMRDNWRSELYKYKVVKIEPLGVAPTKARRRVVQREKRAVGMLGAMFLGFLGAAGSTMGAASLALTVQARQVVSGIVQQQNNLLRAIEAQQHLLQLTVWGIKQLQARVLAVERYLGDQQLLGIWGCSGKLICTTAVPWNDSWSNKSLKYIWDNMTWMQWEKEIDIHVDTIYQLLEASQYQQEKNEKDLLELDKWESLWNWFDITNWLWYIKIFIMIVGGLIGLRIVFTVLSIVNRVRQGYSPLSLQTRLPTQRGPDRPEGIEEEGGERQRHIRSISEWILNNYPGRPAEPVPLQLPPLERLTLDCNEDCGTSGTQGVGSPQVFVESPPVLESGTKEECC

**Q.** O=C(NCCc1ccccc1)c1ccc2c(=O)[nH]c3c(C(=O)NCC4CCCO4)sc(=S)n3c2c1 (centres undefined) was tested. Which IC50 did it give?
**A.** 27.8 µM (active)

**Q.** For CCOc1cc(/C=C2\C(=O)N(c3cccc(C(=O)O)c3)N=C2C(F)(F)F)ccc1OCC(=O)Nc1ccccc1OC, which IC50 is on record?
**A.** 3.88 µM (active)

**Q.** For COc1ccc(-c2cc(-c3ccc(Cl)cc3)c(C#N)c(SCC(=O)O)n2)cc1, which IC50 is on record?
**A.** 19.4 µM (active)

**Q.** For O=C(O)c1ccc(/C=N/NC(=O)c2ccc(CN3c4cccc5cccc(c45)S3(=O)=O)cc2)cc1, which IC50 is on record?
**A.** 19.7 µM (active)
